From patent US9630977B2, “Cephalosporin derivatives and pharmaceutical compositions thereof” (Legochem Biosciences, Inc., priority 2011, dated 2017)
Values after ≈ are worked out from the molar mass of the structure shown.

Legend:
[1] = tested on: K. pneumoniae (38 clinical isolates); assay: Antibacterial activity on representative drug-resistance bacteria: number of clinical isolates per MIC value; type: cell-based; settings: K. pneumomiae (N = 38)
Description: (§1) The in vitro antibacterial activity was evaluated by measuring MIC90 (ug/mL) of each of the compounds of Examples 1 to 68, which is defined as the lowest concentration of an antibiotic that will inhibit the visible growth of 90% of microorganisms after incubation as compared with a control group to which the antibiotic is not treated. MIC90 values were measured by the broth microdilution method developed by the Clinical and Laboratory Standards Institute (CLSI) (see CLSI M7-A5, Methods for Dilution Antimicrobial Susceptibility Test for Bacteria that Grow Aerobically-Fifth Edition (2000): CLSI, Villanova, Pa.).
(§2) Test compounds each (the cephalosporin derivative compounds prepared in Examples 1 to 68) were dissolved in DMSO at the concentration of 10,240 ug/mL, were diluted by two fold with DMSO, and then were diluted by twenty fold with sterilized distilled water. The final concentration in the antibacterial activity test was in the range of […] to 128 ug/mL, and the final concentration of DMSO used as an adjuvant was 2.5% (V/V).

[2] = tested on: P. aeruginosa (16 clinical isolates); assay: as above; type: cell-based; settings: P. aeruginosa (N = 16)
Description: as §1, §2

[3] = tested on: A. baumannii (6 clinical isolates); assay: as above; type: cell-based; settings: A. baumanni (N = 6)
Description: as §1, §2

[4] = tested on: 19 clinical isolates; assay: In vitro antibacterial activity test, panel of 19 clinical isolates as a whole; type: cell-based; settings: effect of a siderophore group, Table 1
Description: To evaluate antibacterial activity of each of the compounds of Examples 1 to 68, in vitro antibacterial activity test was performed.
as §1
In vitro antibacterial activity was measured with respect to the following 19 clinical isolates: M. catarrhalis; P. aeruginosa (5 strains); K. pneumoniae (6 strains); A. baumannii (3 strains); E. coli (2 strains); A. calcoaceticus; and E. cloacae.
as §2

[5] = Pharmacokinetics study in rat, IV; type: in vivo, SD rat; settings: Rat (10 mg/kg) single IV
Description: Test animals: 9 week old SD rat, weight 290˜310 g; 3 rats/sample time point
Lab conditions: Temperature of 21±2° C.; humidity of 50±20%
Administration method: Injecting test compound solution through tail vein (IV)
Test method: Blood samples were taken from jugular vein at a predetermined time period for 24 hours after administration, plasma was separated, and quantified by using LC-MS/MS.

[6] = tested on: K. pneumoniae β11; assay: In vitro antibacterial activity test (broth microdilution); type: cell-based; settings: Klebsiella pneumoniae; K. pneumoniae β11; read-out: MIC90
Outline: (§3)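 MIC90 was determined by CLSI broth microdilution against clinical isolates, as the lowest concentration inhibiting visible growth of 90% of organisms relative to untreated control. Final compound concentrations spanned 0.0626–128 ug/mL with 2.5% (V/V) DMSO.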

[7] = tested on: K. pneumoniae β10; assay: as above; type: cell-based; settings: Klebsiella pneumoniae; K. pneumoniae β10; read-out: MIC90
Outline: as §3

[8] = tested on: A. baumannii 52; assay: as above; type: cell-based; settings: Acinetobacter baumannii; A. baumannii 52; read-out: MIC90
Outline: as §3

[9] = tested on: M. catarrhalis 2524; assay: as above; type: cell-based; settings: Moraxella catarrhalis; M. catarrhalis 2524; read-out: MIC90
Outline: as §3

[10] = tested on: K. pneumoniae β9; assay: as above; type: cell-based; settings: Klebsiella pneumoniae, K. pneumoniae β9; read-out: MIC90
Outline: as §3

[11] = tested on: E. coli AG100; assay: as above; type: cell-based; settings: Escherichia coli, AG100, E. coli AG100; read-out: MIC90
Outline: as §3

[12] = tested on: A. baumannii 49; assay: as above; type: cell-based; settings: Acinetobacter baumannii; A. baumannii 49; read-out: MIC90
Outline: as §3

[13] = tested on: P. aeruginosa 6065Y; assay: as above; type: cell-based; settings: Pseudomonas aeruginosa, read-out: MIC90
Outline: as §3

[14] = tested on: P. aeruginosa 43; assay: as above; type: cell-based; settings: Pseudomonas aeruginosa; P. aeruginosa 43; read-out: MIC90
Outline: as §3

[15] = tested on: K. pneumoniae 2011E; assay: as above; type: cell-based; settings: Klebsiella pneumoniae, 2011E, K. pneumoniae 2011E; read-out: MIC90
Outline: as §3

[16] = tested on: K. pneumoniae β14; assay: as above; type: cell-based; settings: Klebsiella pneumoniae, read-out: MIC90
Outline: as §3

[17] = tested on: P. aeruginosa 40; assay: as above; type: cell-based; settings: Pseudomonas aeruginosa, 40, P. aeruginosa 40; read-out: MIC90
Outline: as §3

[18] = tested on: A. calcoaceticus ATCC15473; assay: as above; type: cell-based; settings: Acinetobacter calcoaceticus; A. calcoaceticus ATCC15473; read-out: MIC90
Outline: as §3

[19] = tested on: E. coli β4; assay: as above; type: cell-based; settings: Escherichia coli, read-out: MIC90
Outline: as §3

[20] = tested on: K. pneumoniae β13; assay: as above; type: cell-based; settings: Klebsiella pneumoniae, K. pneumoniae β13; read-out: MIC90
Outline: as §3

[21] = tested on: P. aeruginosa 37; assay: as above; type: cell-based; settings: Pseudomonas aeruginosa, 37, P. aeruginosa 37; read-out: MIC90
Outline: as §3

[22] = tested on: A. baumannii 46; assay: as above; type: cell-based; settings: Acinetobacter baumannii; A. baumannii 46; read-out: MIC90
Outline: as §3

[23] = tested on: P. aeruginosa 1912E; assay: as above; type: cell-based; settings: Pseudomonas aeruginosa, 1912E, read-out: MIC90
Outline: as §3

[24] = tested on: E. cloacae β19; assay: as above; type: cell-based; settings: Enterobacter cloacae, read-out: MIC90
Outline: as §3

Compound: C[C@H](O/N=C(\C(=O)N[C@@H]1C(=O)N2C(C(=O)[O-])=C(C[n+]3cnc(N)c(NCCNC(=O)c4cc(=O)c(O)cn4O)c3)CSC12)c1nc(N)sc1Cl)C(=O)O (stereo partly shown) [Compound 4]
- number of clinical isolates that showed the respective MIC value ([1]; MIC 0.25 ug/mL): 1
- number of clinical isolates that showed the respective MIC value ([1]; MIC 1 ug/mL): 1
- number of clinical isolates that showed the respective MIC value ([1]; MIC 2 ug/mL): 3
- number of clinical isolates that showed the respective MIC value ([1]; MIC 4 ug/mL): 2
- number of clinical isolates that showed the respective MIC value ([1]; MIC 8 ug/mL): 3
- number of clinical isolates that showed the respective MIC value ([1]; MIC 16 ug/mL): 2
- number of clinical isolates that showed the respective MIC value ([1]; MIC >16 ug/mL): 26
- number of clinical isolates that showed the respective MIC value ([2]; MIC 0.0625 ug/mL): 1
- number of clinical isolates that showed the respective MIC value ([2]; MIC 0.25 ug/mL): 5
- number of clinical isolates that showed the respective MIC value ([2]; MIC 0.5 ug/mL): 2
- number of clinical isolates that showed the respective MIC value ([2]; MIC 1 ug/mL): 1
- number of clinical isolates that showed the respective MIC value ([2]; MIC 2 ug/mL): 2
- number of clinical isolates that showed the respective MIC value ([2]; MIC 4 ug/mL): 1
- number of clinical isolates that showed the respective MIC value ([2]; MIC 8 ug/mL): 1
- number of clinical isolates that showed the respective MIC value ([2]; MIC >16 ug/mL): 3
- number of clinical isolates that showed the respective MIC value ([3]; MIC 0.125 ug/mL): 1
- number of clinical isolates that showed the respective MIC value ([3]; MIC 2 ug/mL): 2
- number of clinical isolates that showed the respective MIC value ([3]; MIC >16 ug/mL): 3
- antibacterial activity (in words) [4]: significantly improved
- AUCnorm [5]: 4.03 kg·h/L
- Cmax,norm [5]: 7.58 kg/L
- AUC ([5]; SD, plasma): 40300 ng·h/mL
- Cmax ([5]; SD, plasma): 75.8 µg/mL
- Tmax ([5]; SD, plasma): 1.2 min
- clearance ([5]; SD, plasma): 4.17 mL/min/kg
- half-life ([5]; SD, plasma): 37.2 min
- Vd ([5]; SD, plasma, read-out: Vss): 0.2 L/kg
- MIC90 [6]: 4 µg/mL (≈ 5.04 µM)
- MIC90 [7]: 0.5 µg/mL (≈ 0.63 µM)
- MIC90 [8]: 4 µg/mL (≈ 5.04 µM)
- MIC90 [9]: 0.25 µg/mL (≈ 0.315 µM)
- MIC90 [10]: 0.5 µg/mL (≈ 0.63 µM)
- MIC90 [11]: 0.125 µg/mL (≈ 0.157 µM)
- MIC90 [12]: 8 µg/mL (≈ 10.1 µM)
- MIC90 [13]: 0.5 µg/mL (≈ 0.63 µM)
- MIC90 [14]: 1 µg/mL (≈ 1.26 µM)
- MIC90 [15]: 2 µg/mL (≈ 2.52 µM)
- MIC90 [16]: 32 µg/mL (≈ 40.3 µM)
- MIC90 [17]: 1 µg/mL (≈ 1.26 µM)
- MIC90 [18]: 2 µg/mL (≈ 2.52 µM)
- MIC90 [19]: 0.5 µg/mL (≈ 0.63 µM)
- MIC90 [20]: 1 µg/mL (≈ 1.26 µM)
- MIC90 [21]: 0.5 µg/mL (≈ 0.63 µM)
- MIC90 [22]: 64 µg/mL (≈ 80.6 µM)
- MIC90 [23]: 0.5 µg/mL (≈ 0.63 µM)
- MIC90 [24]: 1 µg/mL (≈ 1.26 µM)
